According to ChEMBL document CHEMBL1123310, “Spin probes as mechanistic inhibitors and active site probes of thymidylate synthetase” (J Med Chem, 1986):
One block for each compound: values may come before it.

Key:
[1] = biological target: T1, Thymidylate synthase (Lactobacillus casei) (UniProt P00469); assay: The high gain spectrum and that of thymidylate synthetase both at high and low peaks indicating its binding activity; details: Lacticaseibacillus casei
T1 sequence (whole entry): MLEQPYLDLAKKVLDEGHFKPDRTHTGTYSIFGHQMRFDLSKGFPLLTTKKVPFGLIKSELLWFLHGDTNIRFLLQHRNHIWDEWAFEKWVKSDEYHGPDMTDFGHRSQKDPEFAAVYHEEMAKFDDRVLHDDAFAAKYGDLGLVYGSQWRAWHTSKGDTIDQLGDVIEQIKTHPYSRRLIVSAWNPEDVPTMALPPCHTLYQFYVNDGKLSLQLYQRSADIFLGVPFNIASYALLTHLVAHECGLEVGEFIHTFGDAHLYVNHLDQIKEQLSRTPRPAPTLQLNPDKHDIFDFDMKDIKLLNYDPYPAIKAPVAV

[2] = biological target: T1, Thymidylate synthase (Lactobacillus casei); assay: Association constant (Kassoc) towards Thymidylate synthetase binding site by electron spin resonance; details: Lacticaseibacillus casei
Thymidylate synthase [3] = biological target: T2, Thymidylate synthase (Lactobacillus casei, UniProt P00469); assay: In vitro inhibitory activity against Thymidylate synthetase was evaluated; set-up: species or system Lacticaseibacillus casei
T2 sequence (P00469 whole entry): T1 sequence (whole entry)

[4] = biological target: T1, Thymidylate synthase (Lactobacillus casei); details: Lacticaseibacillus casei
[5] = biological target: T1, Thymidylate synthase (Lactobacillus casei); details: Lacticaseibacillus casei; remark: listed apart in the source
Description: Association constant (Kassoc) towards Thymidylate synthase binding site by electron spin resonance

Thymidylate synthase [6] = biological target: T2, Thymidylate synthase; assay: In vitro inhibitory activity against Thymidylate synthase was evaluated; set-up: species or system Lacticaseibacillus casei

SMILES: CC1(C)C=C(C(=O)NC/C=C/c2cn([C@H]3C[C@H](O)[C@@H](CO)O3)c(=O)[nH]c2=O)C(C)(C)N1[O]
2T11 [1]: 60
K ass [2]: 190000 M⁻¹
Ki (Thymidylate synthase [3]): 9.2 µM

Ki (Thymidylate synthase [3]): 7.9 µM
SMILES: NC/C=C/c1cn([C@H]2C[C@H](O)[C@@H](COP(=O)(O)O)O2)c(=O)[nH]c1=O

SMILES: CC1(C)CC(NC(=O)CSc2cn([C@H]3C[C@H](O)[C@@H](CO)O3)c(=O)[nH]c2=O)CC(C)(C)N1[O]
2T11 [4]: 61
K ass [5]: 240000 M⁻¹
Ki (Thymidylate synthase [6]): 89 µM
